Assay results from patent US6924268B2, “Method for inactivating gonadotrophs” (Colorado State University Research Foundation, priority 1989, dated 2005).

Experiments:
ovine pituitary cells [1] = assay: Total culture LH after exposure to GnRH and toxin conjugates with or without lysosomal agents; assay type: cell-based; conditions: 24 hour exposure, wash, further 24 hour culture in standard media
Method: Applicants then tested the more promising Barley-2IT-[D-Lys^6, desGly^10]-GnRH-ethylamide conjugate in similar assay systems. […] Ovine pituitary cells were again placed in culture with various agents and the total LH in the cells and media determined after a 24 hour exposure, wash, and further 24 hour culture in standard media.

[2] = tested on: GnRH induced secretion of LH; assay: GnRH induced secretion of LH in ovariectomized female rats; assay type: in vivo; conditions: single injection; ovariectomized female rat
Method: Applicants also tested these compounds using an in vivo model. The test system initially chosen was the ovariectomized female rat. […] During week 2, release of LH was reduced by 50% in the GnRH-A treated group (controls), but by >90% in the GnRH-A-T group. […] It might however be the basis for a temporary sterilization. Based upon this finding, a second experiment was conducted to examine the effect of 4 injections of a pokeweed antiviral sterilization conjugate at 3-day intervals on the ability of ovariectomized rats to release LH.
Applicants also tested the PAP-carbodiimide-[D-Lys^6, desGly^10]-GnRH-ethylamide conjugate in ovariectomized female rats.
FIG. 1B indicates the results of a challenge by one of applicants' compounds to ovariectomized rats. […] The open space above the bars indicates the amount of LH released in response to a GnRH challenge. The challenges were administered on the first day of treatment and again 4 weeks later.

ovine pituitary cells [3] = assay: LH synthesis by ovine pituitary cells in suspension culture; assay type: cell-based; conditions: cells incubated with treatment for 16 hours; LH synthesis during 24 hour culture after removal
Method: In addition, the conjugation procedure reduces the toxicity of the pokeweed antiviral protein by 99.5 in a cell-free translation system. […] The activity of this conjugate was also tested in a pituitary cell culture system. In this system, pituitary cells were incubated with the sterilization agent conjugated to [D-Lys^6, des-Gly^10]-GnRH-ethylamide for 16 hours. After incubation, the sterilization agents were removed from the incubation media by extensive washing and the cells were then cultured for an additional 24 hours. The increase in total LH, i.e., that present in the media plus that in the cells during the 24 hour period, represents the ability of the treated cells to synthesize LH. […]
The effect of these compounds on ovine pituitary cells in suspension culture was measured. […] After pretreatment, the cells were washed 6 times, counted, and small aliquots removed for testing. […] 3 ml of cold Gel-PBS was added to each tube, cells were centrifuged, and the media was measured for LH content. The four pretreatment groups were evaluated for their ability to synthesize and secrete LH immediately after treatment and after the 24 hour recovery period.

Substance	Total LH (ovine pituitary cells [1]) [Ng/10^5 cells in Culture]	reduction of release of LH, week 2 [2] [%]	SYNTHESIS of LH (ovine pituitary cells [3]) [ng per 5 × 10^6 cells]
pyroGlu-His-Trp-Ser-Tyr-D-Lys-Leu-Arg-Pro-ethylamide [[D-Lys^6, des-Gly^10]-GnRH-ethylamide]	1.62	50	–
gonadotropin-releasing hormone (QHWSYGLRPG; Gonadoliberin-1; UniProt P01148 24-33, looked up) [GnRH, native decapeptide hormone]	–	–	545.5
